Common to all, as to type: functional, cell-based
Experiment [1] has as its system HCT-116. Kind of experiment: Cytotoxicity against human HCT-116 cells assessed as cell growth inhibition incubated for 72 hrs by CCK8 assay. To be noted: HCT-116, 72 h.
The test system of experiment [2] is 4T1. Kind of experiment: Cytotoxicity against mouse 4T1 cells assessed as cell growth inhibition incubated for 72 hrs by CCK8 assay. To be noted: 4T1, 72 h.
The test system of experiment [3] is A549. Kind of experiment: Cytotoxicity against human A549 cells assessed as cell growth inhibition incubated for 72 hrs by CCK8 assay. To be noted: A549, 72 h.
Experiment [4] has as its system HepG2. The experiment can be described thus: Cytotoxicity against human HepG2 cells assessed as cell growth inhibition incubated for 72 hrs by CCK8 assay. To be noted: HepG2, 72 h.

Take `CC(=O)c1cccc2c1C(=O)C(N)=C(C(N)=O)C2=O`: the IC50 in experiment [1] was 14.8 µM; in experiment [2], 7.6 µM; in experiment [3], 13.5 µM; in experiment [4], 6.3 µM.
Regarding `C[C@H]1O[C@@H]2C[C@@H](O)[C@@]1(O)c1c2c(O)c(C(N)=O)c2nc([C@@H](O)[C@@H](O)CO)oc12`, the concentration for half-maximal inhibition (IC50) in experiment [1] was 4.4 µM; in experiment [2], 4.3 µM; in experiment [3] it was 4.8 µM; in experiment [4], 5.6 µM.
Taken in the same sequence, the figures for `CC(O)c1cccc2c1C(=O)C(N)=C(C(N)=O)C2=O` (stereo unspecified) were 2.1 µM, 1.3 µM, 0.9 µM and 1.9 µM.
Consider `NC(=O)C1=C(N)C(=O)c2c(O)cccc2C1=O`, for which the IC50 in experiment [1] was 11.6 µM; in experiment [2] it was 14.7 µM; in experiment [3], 8.4 µM; in experiment [4] it was 8.9 µM.
Take `C[C@H]1O[C@@H]2C[C@@H](O)[C@@]1(O)C1=C2C(=O)C(C(N)=O)=C(N)C1=O`: the IC50 turned out to be 0.7 µM in experiment [1], 0.9 µM in experiment [2], 1.4 µM in experiment [3] and 1.2 µM in experiment [4].
In the case of `C[C@H]1O[C@@H]2C[C@@H](O)[C@@]1(O)c1c2c(O)c(C(N)=O)c2ncoc12`, the 50% inhibitory concentration (IC50) in experiment [1] turned out to be 6.8 µM; in experiment [2] it was 5.7 µM; in experiment [3] it was 7.2 µM; in experiment [4] it was 12.4 µM.
Regarding `C[C@H]1O[C@@H]2C[C@@H](O)[C@@]1(O)c1c2c(O)c(C(N)=O)c2nc([C@@H](O)CO)oc12`, the IC50 in experiment [1] is 5.6 µM; in experiment [2] it was 4.8 µM; in experiment [3] it was 6.4 µM; in experiment [4] it was 8.9 µM.
As for `COc1cccc2c1C(=O)c1c(O)c3c(c(O)c1C2=O)C[C@@](O)(C(=O)CO)C[C@@H]3O[C@H]1C[C@H](N)[C@H](O)[C@H](C)O1` [DOXORUBICIN], the half-inhibitory concentration (IC50) came to 0.08 µM in experiment [1], 0.09 µM in experiment [2] and 0.13 µM in experiment [4].

These data come from ChEMBL document CHEMBL5120770, “Sarubicinols A-C, Cytotoxic Benzoxazoles from a Streptomyces” (J Nat Prod, 2022).
